Drawing on patent publication US20250171495A1, “MUTLI-TARGETED SERINE PROTEASE INHIBITORS FOR TREATMENT OF CANCER AND VIRAL INFECTION” (Washington University, priority 2023, published 2025), this text covers IC50 for 14 molecules.

Structures are written as SMILES. Read-outs that look alike come from different tables or passages of the source. Numbered stars: 1 amine (or outer) side, 2 acyl side, 3 side chain; on linkers, the order of the positions; unused ones are H or OH. Square brackets hold non-standard residues; d marks the D form. Peptide text beside a SMILES is read from it. X1 = N=C(N)NCCC[C@H](N[*:1])C(=O)c1nc2ccc(C(=O)[*:2])cc2s1

Holding throughout (format): biochemical
In one experiment the target is T1, matriptase (Homo sapiens, UniProt Q9Y5Y6).
T1 construct: purchased R&D Systems 3946-SEB-010
T1 sequence (Q9Y5Y6 615-855 limits assumed): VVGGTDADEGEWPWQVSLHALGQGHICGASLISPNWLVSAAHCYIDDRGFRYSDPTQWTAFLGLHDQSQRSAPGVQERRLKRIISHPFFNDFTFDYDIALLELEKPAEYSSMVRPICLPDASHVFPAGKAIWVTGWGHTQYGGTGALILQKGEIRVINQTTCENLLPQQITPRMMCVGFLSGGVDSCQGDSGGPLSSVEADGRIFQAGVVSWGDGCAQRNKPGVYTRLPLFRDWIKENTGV
The experiment in a line: Fluorogenic kinetic enzyme inhibitor assay, matriptase.

A further experiment has as its target T2, hepsin (Homo sapiens, UniProt P05981).
T2 construct: purchased R&D Systems 4776-SE-010
The experiment in a line: Fluorogenic kinetic enzyme inhibitor assay, hepsin.

The next experiment addresses T3, HGFA (Homo sapiens, UniProt Q04756).
T3 construct: purchased R&D Systems 1514-SE-010
T3 sequence (Q04756 408-655 limits assumed): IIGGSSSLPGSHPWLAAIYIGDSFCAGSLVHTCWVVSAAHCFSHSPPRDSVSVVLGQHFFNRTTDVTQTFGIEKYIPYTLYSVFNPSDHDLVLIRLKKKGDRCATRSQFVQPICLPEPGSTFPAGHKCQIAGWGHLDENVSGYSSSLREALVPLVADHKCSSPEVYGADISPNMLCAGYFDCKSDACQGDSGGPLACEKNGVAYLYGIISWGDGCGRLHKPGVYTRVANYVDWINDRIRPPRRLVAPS
T3 sequence (Q04756 373-407 partner limits assumed): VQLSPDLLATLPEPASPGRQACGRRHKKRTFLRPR
The experiment in a line: Fluorogenic kinetic enzyme inhibitor assay, HGFA.

In the next experiment the target is Thrombin (Homo sapiens, UniProt P00734). The experiment in a line: Fluorogenic assay, thrombin.
The target in a further experiment is T4, Factor Xa (Homo sapiens, UniProt P00742).
T4 construct: TMPRSS2; Matriptase; Hepsin; HGFA; Thrombin; Factor Xa
T4 sequence (P00742 235-488 limits assumed): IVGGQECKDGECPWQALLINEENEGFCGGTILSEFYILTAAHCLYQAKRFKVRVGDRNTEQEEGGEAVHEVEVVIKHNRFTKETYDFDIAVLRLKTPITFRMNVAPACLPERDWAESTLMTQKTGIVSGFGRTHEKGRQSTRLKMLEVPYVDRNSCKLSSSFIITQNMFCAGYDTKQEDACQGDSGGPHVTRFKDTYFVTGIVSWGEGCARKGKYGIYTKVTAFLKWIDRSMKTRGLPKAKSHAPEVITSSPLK
T4 sequence (P00742 41-179 partner limits assumed): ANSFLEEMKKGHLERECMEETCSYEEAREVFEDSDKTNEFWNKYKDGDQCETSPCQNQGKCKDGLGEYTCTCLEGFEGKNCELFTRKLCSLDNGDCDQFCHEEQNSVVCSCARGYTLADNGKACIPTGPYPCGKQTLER
In words: Fluorogenic assay, Factor Xa. Particulars: read-out: Factor Xa IC50.

Another experiment addresses TMPRSS2 (Homo sapiens, UniProt O15393). In words: Fluorogenic kinetic enzyme inhibitor assay, TMPRSS2. Further details: purchased Cusabio Technology CSB-YP023924HU.
Setting [1] is: 30 min incubation, Boc-QLR-AMC at Km, read-out: HGFA IC50.
[2] abbreviates: 30 min incubation, Boc-QAR-AMC at Km, read-out: TMPRSS2 IC50.

T2 sequence (P05981 163-417 limits assumed): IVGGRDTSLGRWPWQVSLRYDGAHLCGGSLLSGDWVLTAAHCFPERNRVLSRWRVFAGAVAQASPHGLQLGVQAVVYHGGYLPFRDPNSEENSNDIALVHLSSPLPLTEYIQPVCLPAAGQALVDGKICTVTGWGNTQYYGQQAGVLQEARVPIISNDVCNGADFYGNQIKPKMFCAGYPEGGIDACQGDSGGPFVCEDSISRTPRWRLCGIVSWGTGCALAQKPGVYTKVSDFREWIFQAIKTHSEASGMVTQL
T2 sequence (P05981 1-162 partner limits assumed): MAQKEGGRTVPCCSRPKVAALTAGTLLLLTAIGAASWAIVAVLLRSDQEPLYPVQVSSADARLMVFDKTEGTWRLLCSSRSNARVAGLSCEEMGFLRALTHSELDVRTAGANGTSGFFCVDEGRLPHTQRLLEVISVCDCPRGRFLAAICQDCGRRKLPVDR
Sequence of TMPRSS2 (O15393 106-492 limits assumed): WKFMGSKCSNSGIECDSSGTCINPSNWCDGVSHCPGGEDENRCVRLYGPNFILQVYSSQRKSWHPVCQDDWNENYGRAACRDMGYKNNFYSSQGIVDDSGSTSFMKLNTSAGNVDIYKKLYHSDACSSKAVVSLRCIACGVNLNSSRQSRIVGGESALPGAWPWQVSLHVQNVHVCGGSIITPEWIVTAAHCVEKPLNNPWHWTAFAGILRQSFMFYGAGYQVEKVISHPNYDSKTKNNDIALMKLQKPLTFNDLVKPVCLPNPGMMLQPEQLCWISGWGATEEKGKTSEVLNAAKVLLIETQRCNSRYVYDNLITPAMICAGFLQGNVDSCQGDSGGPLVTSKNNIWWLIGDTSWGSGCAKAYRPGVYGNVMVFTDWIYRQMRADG

As to `CC(=O)N[C@@H](CO)C(=O)N[C@H](Cc1c[nH]c2ccccc12)C(=O)N[C@@H](CC(C)C)C(=O)N[C@@H](CCCNC(=N)N)C(=O)c1nc2ccc(C(=O)N[C@H](C(N)=O)C(C)C)cc2s1` [JH1114, N-[(S)-1-carbamoyl-2-methylpropyl]-2-[(S)-2-[(S)-2-[(R)-2-[(S)-2-acetylamino-3-hydroxypropionylamino]-3-(3-indolyl)propionylamino]-4-methylvalerylamino]-5-guanidinovaleryl]-1,3-benzothiazole-6-carboxamide] (Ac-S[dW]L[X1]V-NH2), the IC50 (in general, the point on the concentration scale where inhibition reaches its midpoint) amounted to 231 nM against matriptase; 1.8 nM at hepsin (read-out: Hepsin IC50); 57.4 nM at HGFA (read-out: HGFA IC50); 3880 nM on Thrombin; 1280 nM at Factor Xa.
As for `CCC(C)[C@H](NC(C)=O)C(=O)N[C@@H](CCC(N)=O)C(=O)N[C@@H](Cc1ccccc1)C(=O)N[C@@H](CCCNC(=N)N)C(=O)c1nc2ccccc2s1` (stereo partly drawn) [MM3116, N-[(S)-1-[N-(S)-1-[(1,3-benzothiazol-2-yl)carbonyl]-4-guanidinobutylcarbamoyl]-2-phenylethyl](S)-2-[(2S)-2-acetylamino-3-methylvalerylamino]glutaramide], the IC50 at matriptase (read-out: Matriptase IC50) amounted to 0.92 nM; at hepsin (read-out: Hepsin IC50) it was 0.14 nM; at HGFA (read-out: HGFA IC50), 30 nM; at Factor Xa, 792 nM; at TMPRSS2 (read-out: TMPRSS2 IC50) it was 1.73 nM.
For the molecule `CC(=O)NCC(=O)N[C@@H](CCC(N)=O)C(=O)N[C@@H](Cc1ccccc1)C(=O)N[C@@H](CCCNC(=N)N)C(=O)c1nc2ccccc2s1` [MM3122, N-[(S)-1-[N-(S)-1-[(1,3-benzothiazol-2-yl)carbonyl]-4-guanidinobutylcarbamoyl]-2-phenylethyl](S)-2-[(acetylaminomethyl)carbonylamino]glutaramide], the IC50 on matriptase (read-out: Matriptase IC50) came out at 0.314 nM; at hepsin (read-out: Hepsin IC50), 0.194 nM; at HGFA, 32.5 nM; at Factor Xa, 700 nM; on TMPRSS2 (read-out: TMPRSS2 IC50), 0.03 nM.
Regarding `CC(=O)N1CCC[C@H]1C(=O)N[C@@H](CCC(N)=O)C(=O)N[C@@H](Cc1ccccc1)C(=O)N[C@@H](CCCNC(=N)N)C(=O)c1nc2ccccc2s1` [MM3123, N-[(S)-1-[N-(S)-1-[(1,3-benzothiazol-2-yl)carbonyl]-4-guanidinobutylcarbamoyl]-2-phenylethyl](S)-2-[(S)-1-acetyl-2-pyrrolidinylcarbonylamino] glutaramide], the IC50 was found to be 0.316 nM at matriptase (read-out: Matriptase IC50); 0.135 nM against hepsin; 75 nM at HGFA (read-out: HGFA IC50); 199 nM at Factor Xa; 0.06 nM on TMPRSS2 (read-out: TMPRSS2 IC50).
As to `CCC(C)[C@H](NC(C)=O)C(=O)N[C@@H](CCC(N)=O)C(=O)N[C@@H](CO)C(=O)N[C@@H](CCCNC(=N)N)C(=O)c1nc2ccccc2s1` (stereo partly drawn) [MM3177, N-[(S)-2-hydroxy-1-[N-(S)-1-[(1,3-benzothiazol-2-yl)carbonyl]-4-guanidinobutylcarbamoyl]ethyl](S)-2-[(2S)-2-acetylamino-3-methylvalerylamino]glutaramide], the IC50 was 2.42 nM at hepsin (read-out: Hepsin IC50); 19900 nM on HGFA (read-out: HGFA IC50); above 20000 nM against Thrombin; 1730 nM at Factor Xa; 4.55 nM at TMPRSS2 (read-out: TMPRSS2 IC50).
Take `CCC(C)[C@H](NC(C)=O)C(=O)N[C@@H](CCC(N)=O)C(=O)N[C@H](C(=O)N[C@H](CCCNC(=N)N)C(=O)c1nc2ccccc2s1)C(C)C` (stereo partly drawn) [MM3180-1, N-[(S)-2-methyl-1-[N-(R)-1-[(1,3-benzothiazol-2-yl)carbonyl]-4-guanidinobutylcarbamoyl]propyl](S)-2-[(2S)-2-acetylamino-3-methylvalerylamino]glutaramide]: the IC50 at HGFA (read-out: HGFA IC50) is 14600 nM; against Thrombin, above 20000 nM; at Factor Xa it was above 20000 nM; on TMPRSS2 (read-out: TMPRSS2 IC50), 2.89 nM.
With `CCC(C)[C@H](NC(C)=O)C(=O)N[C@@H](CCC(N)=O)C(=O)N[C@H](C(=O)N[C@@H](CCCNC(=N)N)C(=O)c1nc2ccccc2s1)C(C)O` (stereo partly drawn) [MM3186, N-[(1S)-2-hydroxy-1-[N-(S)-1-[(1,3-benzothiazol-2-yl)carbonyl]-4-guanidinobutylcarbamoyl]propyl](S)-2-[(2S)-2-acetylamino-3-methylvalerylamino]glutaramide], the IC50 against matriptase is 15.5 nM; at HGFA (read-out: HGFA IC50), 18400 nM; at Thrombin it was above 20000 nM; on Factor Xa, above 20000 nM; at TMPRSS2 (read-out: TMPRSS2 IC50), 0.173 nM.
Turning to `CC(=O)N[C@H]1CC(=O)NCCCC[C@@H](C(=O)N[C@@H](CCCNC(=N)N)C(=O)c2nc3ccccc3s2)NC(=O)[C@H](CCC(N)=O)NC1=O` [VD3152, N-[(S)-1-[(1,3-benzothiazol-2-yl)carbonyl]-4-guanidinobutyl]-(3S,6S,14S)-6-acetylamino-3-(2-carbamoylethyl)-2,5,8-trioxo-1,4,9-triaza-14-cyclotetradecane-carboxamide], the IC50 was 7.7 nM at matriptase (read-out: Matriptase IC50), 16100 nM on HGFA (setting [1]), above 20000 nM against Thrombin and 24.3 nM on TMPRSS2 (read-out: TMPRSS2 IC50).
Turning to `CC(=O)N[C@H]1Cc2ccc(cc2)OC/C=C\CNC(=O)CC[C@@H](C(=O)N[C@@H](CCCNC(=N)N)C(=O)c2nc3ccccc3s2)NC(=O)[C@H](CC(C)C)NC1=O` [VD4018, N-[(S)-1-[(1,3-benzothiazol-2-yl)carbonyl]-4-guanidinobutyl]-(4Z,11S,14S,17S)-17-acetylamino-14-isobutyl-8,13,16-trioxo-2-oxa-7,12,15-triazabicyclo[17.2.2]tricosa-1(21),4,19,22-tetraene-11-carboxamide], the IC50 at HGFA (setting [1]) worked out at 6500 nM; on Factor Xa it was 12400 nM; on TMPRSS2 (setting [2]), 2.48 nM.
Regarding `CC(=O)N[C@H]1Cc2ccc(cc2)OC/C=C\CNC(=O)C[C@@H](C(=O)N[C@@H](CCCNC(=N)N)C(=O)c2nc3ccccc3s2)NC(=O)[C@H](CC(C)C)NC1=O` [VD4054, N-[(S)-1-[(1,3-benzothiazol-2-yl)carbonyl]-4-guanidinobutyl]-(4Z,10S,13S,16S)-16-acetylamino-13-isobutyl-8,12,15-trioxo-2-oxa-7,11,14-triazabicyclo[16.2.2]docosa-1(20),4,18,21-tetraene-10-carboxamide], the 50% inhibitory concentration (IC50) at matriptase (read-out: Matriptase IC50) is 44 nM; at hepsin (30 min incubation, Boc-QAR-AMC at Km, read-out: Hepsin IC50), 0.99 nM; at HGFA (read-out: HGFA IC50), above 20000 nM; at Factor Xa, 3180 nM; on TMPRSS2 (read-out: TMPRSS2 IC50), 21.6 nM.
For `CC(=O)N[C@H]1Cc2cn(nn2)CCCC[C@H](C(=O)N[C@@H](CCCNC(=N)N)C(=O)c2nc3ccccc3s2)NC(=O)[C@H](CC(C)C)NC1=O` [VD4090, N-[(S)-1-[(1,3-benzothiazol-2-yl)carbonyl]-4-guanidinobutyl]-(6R,9S,12S)-12-acetylamino-9-isobutyl-8,11-dioxo-1,7,10,15,16-pentaazabicyclo[12.2.1]heptadeca-14(17),15-diene-6-carboxamide], the IC50 on HGFA (setting [1]) was 3080 nM; against Thrombin, above 20000 nM; on Factor Xa it was 4290 nM; at TMPRSS2 (setting [2]) it was 4.19 nM.
As to `CC(=O)N[C@H]1Cc2ccc(cc2)OCCCC[C@@H](C(=O)N[C@@H](CCCNC(=N)N)C(=O)c2nc3ccccc3s2)NC(=O)[C@H](Cc2ccccc2)NC1=O` [VD4111B, N-[(S)-1-[(1,3-benzothiazol-2-yl)carbonyl]-4-guanidinobutyl]-(7S,10S,13S)-13-acetylamino-10-benzyl-9,12-dioxo-2-oxa-8,11-diazabicyclo[13.2.2]nonadeca-1(17),15,18-triene-7-carboxamide], the IC50 at Thrombin is above 20000 nM; on Factor Xa, 8700 nM; on TMPRSS2 (read-out: TMPRSS2 IC50), 16.4 nM.
Consider `CC(=O)N[C@@H](CCCCN)C(=O)N[C@@H](CCC(N)=O)C(=O)N[C@@H](CC(C)C)C(=O)N[C@@H](CCCNC(=N)N)C(=O)c1nc2ccccc2s1` [ZFH7006, N-[(S)-3-methyl-1-[N-(S)-1-[(1,3-benzothiazol-2-yl)carbonyl]-4-guanidinobutylcarbamoyl]butyl](S)-2-[(S)-1-acetylamino-5-aminopentylcarbonyl-amino]glutaramide], for which the IC50 worked out at 1.1 nM on matriptase (read-out: Matriptase IC50); 0.17 nM at hepsin (read-out: Hepsin IC50); 60 nM on HGFA (setting [1]); 258 nM on Factor Xa; 18.1 nM at TMPRSS2.
For `CC(=O)N[C@@H](CO)C(=O)N[C@@H](CCCCN)C(=O)N[C@@H](CC(C)C)C(=O)N[C@@H](CCCNC(=N)N)C(=O)c1nc2ccccc2s1` [ZFH7053, N-[(S)-3-methyl-1-[N-(S)-1-[(1,3-benzothiazol-2-yl)carbonyl]-4-guanidinobutylcarbamoyl]butyl](S)-2-[(S)-2-acetylamino-3-hydroxypropionylamino]-6-aminohexanamide], in that order: 6.1 nM, 0.32 nM, 66 nM, 3800 nM and 39.2 nM.
